Data taken from patent US7320981B2, “Variolin derivatives as anti-cancer agents” (Pharma Mar, S.A., priority 2000, dated 2008).

Legend:
A-549 = assay: SRB cell growth/viability assay, A-549
Source text: (§1) A colorimetric type of assay, using sulforhodamine B (SRB) reaction has been adapted for a quantitative measurement of cell growth and viability: see Skehan, P. A. et al. J. Natl. Cancer Inst., 1990, 82, 1107-1112. This form of the assay employs 96 well cell culture microplates of 9 mm diameter (Faircloth, G. T.; Stewart, D. and Clement, J. J., Journal of Tissue and Culture Methods, 1983, 11, 201-205; Mosmann, T. Journal of Immunological Methods, 1983, 65, 55-63.).
(§2) Most of the cell lines are obtained from American Type Culture Collection (ATCC) derived from different human cancer types. Cells are maintained in RPMI 1640 10% FBS, supplemented with 0.1 g/l penicillin and 0.1 g/l streptomycin sulfate and then incubated at 37° C., 5% CO2 and 98% humidity. For the experiments, cells were harvested from subconfluent cultures using trypsin and resuspended in fresh medium before plating.
(§3) Cells are seeded in 96 well microtiter plates, at 5×10^3 cells per well in aliquots of 195 μl medium, and they are allowed to attach to the plate surface by growing in drug free medium for 18 hours. Afterward, samples are in aliquots of 5 pi in a ranging from 10 to 10-8 μg/ml dissolved in DMSO/EtOH (0.2% in PS buffer). After 48 hours exposure, the antitumour effect are measured by the SRB methodology: cells are fixed by adding 50 μl of cold 50% (w/v) trichloroacetic acid (TCA) and incubating for 60 minutes at 4° C. Plates are washed with deionized water and dried. 100 μl of SRB solution (0.4% w/v in 1% acetic acid) is added to each microtiter well and incubated for 10 minutes at room temperature. Unbound SRB is removed by washing with 1% acetic acid. Plates are air-dried and bound stain is solubilized with Tris buffer. Optical densities are read on an automated spectrophotometric plate reader at a single wavelength of 490 nm.
(§4) The values for mean +/− SD of data from triplicate wells are calculated Some parameters for cellular responses can be calculated: […], TGI=total growth inhibition (cytostatic effect) and LC=cell killing (cytotoxic effect).

HT-29 = assay: SRB cell growth/viability assay, HT-29
Source text: as §1, §2, §3, §4

SW-620 = assay: SRB cell growth/viability assay, SW-620
Source text: as §1, §2, §3, §4

MEL-28 = assay: SRB cell growth/viability assay, MEL-28
Source text: as §1, §2, §3, §4

OVCAR-3 = assay: cells; type: cell-based; details: Table 1, ovary cell line OVCAR-3, 48 hours exposure, SRB
Source text: Plates are washed with deionized water and dried.

A498 = assay: SRB cell growth/viability assay, A498
Source text: as §1, §2, §3, §4

DU-145 = assay: SRB cell growth/viability assay, DU-145
Source text: as §1, §2, §3, §4

MCF-7 = assay: SRB cell growth/viability assay, MCF-7
Source text: as §1, §2, §3, §4

MB-231 = assay: SRB cell growth/viability assay, MB-231
Source text: as §1, §2, §3, §4

**Q.** With `CSc1nccc(-c2c3cccnc3n3c(N)nccc23)n1` [Compound 5, thiodeoxyvariolin] as the compound, how does the GI50 (A-549; Homo sapiens, A549, 48 h, read-out: GI50 (50% growth inhibition)) read?
**A.** 1000 nM

**Q.** What about the CC50 (A-549; Homo sapiens, A549, 48 h, read-out: LC50 (50% net cell killing, cytotoxic effect)) of the same compound?
**A.** 10000 nM

**Q.** What about the “TGI (total growth inhibition, cytostatic effect)” value (A-549; Table 1, NSCL cell line A-549, 48 hours exposure, SRB) of the same compound?
**A.** 3.E−06 M

**Q.** And the GI50 (HT-29; Homo sapiens, HT-29, 48 h, read-out: GI50 (50% growth inhibition))?
**A.** 600 nM

**Q.** And the CC50 (HT-29; Homo sapiens, HT-29, 48 h, read-out: LC50 (50% net cell killing, cytotoxic effect))?
**A.** 10000 nM

**Q.** And the “TGI (total growth inhibition, cytostatic effect)” value (HT-29; Table 1, colon cell line HT-29, 48 hours exposure, SRB)?
**A.** 2.E−06 M

**Q.** What about the GI50 (SW-620; Homo sapiens, SW-620, 48 h, read-out: GI50 (50% growth inhibition)) of the same compound?
**A.** 3000 nM

**Q.** What about the CC50 (SW-620; Homo sapiens, SW-620, 48 h, read-out: LC50 (50% net cell killing, cytotoxic effect)) of the same compound?
**A.** 30000 nM

**Q.** And the “TGI (total growth inhibition, cytostatic effect)” value (SW-620; Table 1, colon cell line SW-620, 48 hours exposure, SRB)?
**A.** 1.E−05 M

**Q.** What about the GI50 (MEL-28; Homo sapiens, SK-MEL-28, 48 h, read-out: GI50 (50% growth inhibition)) of the same compound?
**A.** 60 nM

**Q.** What about the CC50 (MEL-28; Homo sapiens, SK-MEL-28, 48 h, read-out: LC50 (50% net cell killing, cytotoxic effect)) of the same compound?
**A.** 6000 nM

**Q.** What about the “TGI (total growth inhibition, cytostatic effect)” value (MEL-28; Table 1, melanoma cell line MEL-28, 48 hours exposure, SRB) of the same compound?
**A.** 3.E−07 M

**Q.** And the GI50 (OVCAR-3; Homo sapiens, read-out: GI50 (50% growth inhibition))?
**A.** 1000 nM

**Q.** What about the CC50 (OVCAR-3; Homo sapiens, read-out: LC50 (50% net cell killing, cytotoxic effect)) of the same compound?
**A.** 3000 nM

**Q.** And the “TGI (total growth inhibition, cytostatic effect)” value (OVCAR-3)?
**A.** 2.E−06 M

**Q.** And the GI50 (A498; Homo sapiens, A498, 48 h, read-out: GI50 (50% growth inhibition))?
**A.** 600 nM

**Q.** And the CC50 (A498; Homo sapiens, A498, 48 h, read-out: LC50 (50% net cell killing, cytotoxic effect))?
**A.** 3000 nM

**Q.** What about the “TGI (total growth inhibition, cytostatic effect)” value (A498; Table 1, kidney cell line A498, 48 hours exposure, SRB) of the same compound?
**A.** 2.E−06 M

**Q.** And the GI50 (DU-145; Homo sapiens, DU-145, 48 h, read-out: GI50 (50% growth inhibition))?
**A.** 300 nM

**Q.** What about the CC50 (DU-145; Homo sapiens, DU-145, 48 h, read-out: LC50 (50% net cell killing, cytotoxic effect)) of the same compound?
**A.** 3000 nM

**Q.** And the “TGI (total growth inhibition, cytostatic effect)” value (DU-145; Table 1, prostate cell line DU-145, 48 hours exposure, SRB)?
**A.** 1.E−06 M

**Q.** And the GI50 (MCF-7; Homo sapiens, MCF7, 48 h, read-out: GI50 (50% growth inhibition))?
**A.** 2000 nM

**Q.** And the CC50 (MCF-7; Homo sapiens, MCF7, 48 h, read-out: LC50 (50% net cell killing, cytotoxic effect))?
**A.** 30000 nM

**Q.** What about the “TGI (total growth inhibition, cytostatic effect)” value (MCF-7; Table 1, breast cell line MCF-7, 48 hours exposure, SRB) of the same compound?
**A.** 6.E−06 M

**Q.** And the GI50 (MB-231; Homo sapiens, 48 h, read-out: GI50 (50% growth inhibition))?
**A.** 2000 nM

**Q.** What about the CC50 (MB-231; Homo sapiens, 48 h, read-out: LC50 (50% net cell killing, cytotoxic effect)) of the same compound?
**A.** 10000 nM

**Q.** What about the “TGI (total growth inhibition, cytostatic effect)” value (MB-231; Table 1, breast cell line MB-231, 48 hours exposure, SRB) of the same compound?
**A.** 6.E−07 M
